Source: patent US20090053138A1, “Stabilized Aptamers to Platelet Derived Growth Factor and their Use as Oncology Therapeutics” (priority 2002, published 2009)
{PEG40k} = 40 kDa polyethylene glycol; [invdT] = inverted (3'-3') thymidine; [HEG] = hexaethylene glycol spacer

Assays:
PDGF BB [1] = molecular target: T1, PDGF BB (Homo sapiens, UniProt P01127); experiment: Cell migration assay, RPE cells; format: cell-based; parameters: purchased PeproTech, Rocky Hill, N.J
Method: PDGF is a strong mitogen as well as a chemoattractant. […] In the cell migration assay 80,000 cells 3T3 rat fibroblasts (ATCC, Manassas, Va.) or RPE (retinal pigmented epithelial) cells (ATCC, Manassas, Va.) were plated per well into a 24 well plate with 8 micron filters (BD Biosciences, Discovery Labware, Bedford, Mass.). 0.5 ml DMEM/0.2% FCS was added to the top chamber and 0.8 ml DMEM/0.2% FCS was added to the bottom chamber. The system was equilibrated by incubating for 4 hours at 37 degrees celsius. Human PDGF-BB (PeproTech, Rocky Hill, N.J.) (for RPE cells) or rat PDGF-BB (PeproTech) (for 3T3 cells) was added to the bottom chamber (0 ng/ml-100 ng/ml final concentration). […] Cells were scraped off on the top of filter with a Q-tip. The cells that migrated to the bottom of the filter were fixed with a mixture of cold 50% Methanol/50% Acetone for 3 minutes.
Following incubation filters were washed with 1×PBS and stained with Giemsa Stain (Matheson Coleman and Bell) for 1-2 hours and migration was visualized by taking pictures on a Zeiss Axiovert 200M microscope.
The 96 well assay starts by bringing plates and reagents to room temperature. 150 ul of DMEM/0.2% FBS was added with or without chemoattractant to the wells of the feeder tray.
Following incubation, the migration chamber plate was removed and the non-migratory cells were discarded. The number of migratory cells was quantitated according to manufacturer's recommended instructions. In brief, media from the top side was removed by flipping out the remaining cell suspension, and was placed onto a new feeder tray that contains 150 ul of pre-warmed Cell Detachment Solution. This mixture was incubated for 30 minutes at 37 degrees celsius. CyQuant GR Dye 1:75 was diluted with 4× Lysis Buffer and 50 ul of the Lysis Buffer/Dye Solution was added to each well containing 150 ul of the solution containing migratory cells.

PDGF BB [2] = molecular target: T1, PDGF BB; experiment: Competition binding assay, PDGF-BB; parameters: purchased PeproTech, Rocky Hill, N.J; conditions: scrambled variant
Method: Binding reactions were carried out in phosphate-buffered saline (Cellgro, Herndon, Va.) containing 0.2 mg/mL bovine serum albumin (NEB) and 0.02 mg/mL tRNA (Sigma, St. Louis, Mo.). The reactions were equilibrated for a period of 15-30 minutes at room temperature, then filtered through a sandwich of nitrocellulose (Protran membrane, Perkin-Elmer, Boston, Mass.) and nylon (Hybond membrane, Amersham, Piscataway, N.J.) membranes to separate target bound aptamer from free aptamer.
Next, a study was done to determine whether ARC126 cross reacted with PDGF-BB of species other than human. Competition binding assays were set up by dot blot analysis, as previously described, using human, rat, and mouse PDGF-BB (PeproTech, Rocky Hill, N.J.).
The competitive binding assay previously described was used to determine the in vitro binding affinity and selectivity of ARC594 for different PDGF isoforms. Different concentrations of unlabeled, competitor aptamer were titrated in separate reactions against a fixed (<0.1 nM) amount of ^32P-radiolabeled ARC594 in buffer containing a fixed amount (0.1 nM) of the aptamer's cognate target (PDGF-BB; PeproTech). UnPEGylated version of ARC594 was radiolabeled at the 5′ terminus by incubation with γ-^32P-ATP (ICN) and polynucleotide kinase (NEB). Binding reactions were carried out in phosphate-buffered saline (Cellgro) containing 0.2 mg/mL bovine serum albumin (NEB) and 0.02 mg/mL tRNA (Sigma). The reactions were equilibrated for a period of 15-30 minutes at room temperature, then filtered through a sandwich of nitrocellulose (Protran membrane, Perkin-Elmer) and nylon (Hybond membrane, Amersham) membranes to separate target bound aptamer from free aptamer. […] The data was expressed as the ratio of the counts per minute (CPM) of radioactivity due to ^32P-ARC594 bound to PDGF BB on the nitrocellulose membrane (CPMnitrocellulose or CPMnc) over the total CPM (CPMtotal=CPMnitrocellulose+CPMnylon).

Lewis lung carcinoma = experiment: Mouse Lewis lung carcinoma model; conditions: scrambled aptamer 50 mg/kg
From the text: A 1 mm^3 piece of Lewis lung carcinoma was implanted under the dorsal skin of wild-type C57BL/6 mice and allowed to grow. […] At the end of the seven day period, the mice were anesthetized, and the following tissues were fixed by vascular perfusion with 1% paraformaldehyde, removed and frozen for cryotstat sectioning: tumor (Lewis lung carcinoma), pancreas, liver, kidney, trachea, spleen, jejunum, and thyroid tissue. The resulting slides were stained with antibodies against various markers as described below.
Sections of tumors were cut (80 μm) and stained with either anti-CD31 or anti-α smooth muscle actin (“α-SMA”) antibodies. Digital fluorescence microscopic images were obtained for area density measurements by using a CoolCam low-light 3-chip RGB CCD camera. […] In addition, the tumors were imaged by confocal microscopy. […]
Sections of tumors were cut (80 μm) and stained with either anti-CD31 or anti-type IV collagen antibodies. Digital fluorescence microscopic images were obtained for area density measurements by using a CoolCam camera. […]
Pericyte expression was measured using the Cool Cam and confocal images were also taken.
The extent of pericyte colocalization with endothelial cells was then measured on digital Cool Cam images.
The extent of pericyte colocalization with endothelial cells was measured on digital CoolCam images. […]

[3] = Pharmacokinetics of ARC126 5′ PEG conjugates in mice
From the text: The pharmacokinetic (PK) data shown in FIG. 12A was subjected to non-compartmental analysis (NCA) using the industry-standard software package WinNonLin™ v.4.0 (Pharsight Corp., Mountain View, Calif.). […] The pharmacokinetic (PK) data shown in FIG. 12B was subjected to noncompartmental analysis (NCA) using the industry-standard software package WinNonLin™ v.4.0 (Pharsight Corp., Mountain View, Calif.).
The pharmacokinetic (PK) data shown in FIG. 12B was subjected to noncompartmental analysis (NCA) using the industry-standard software package WinNonLin™ v.4.0 (Pharsight Corp., Mountain View, Calif.).

PDGF BB [4] = molecular target: T1, PDGF BB; conditions: in vivo, iv, 10 mg/kg
Method: As a secondary test of both the plasma pharmacokinetics and the in vivo bioactivity of ARC594 the competition binding assay was used to assay the same plasma samples used to generate the pharmacokinetic data. Serial 1:10 dilutions of plasma sample were prepared in phosphate-buffered saline (1×PBS) and mixed with a fixed concentration of ^32P-ARC594, then added to human PDGF-BB. The final concentration of PDGF in each assay was 0.1 nM, and the final concentration of ^32P-ARC594<0.1 nM. In this experiment, the plasma samples were analyzed by comparison with a standard curve generated with samples of known ARC594 concentrations in 1×PBS.

[5] = test system: LS174T colon cancer xenograft
From the text: Experimental overview. Human HT-29 or LS174T colon cancer xenotransplants were established in athymic nude mice (Nu/Nu mice, Charles River Labs, Wilmington, Mass.) by injecting mice with 1×10^7 HT29 cells (ATCC, Manassas, Va.), or 2×10^6 LS174T cells (ATCC Manassas, Va.) sub-cutaneously and allowing the tumors to grow for 5 days. On day 5, two dimensional measurements of the established tumors were taken using a digital caliper. Once tumor measurements were taken, the mice were randomized into groups such that the average tumor size was the same in each group. […]
A third experiment (Experiment 3) was designed to test ARC308/irinotecan and GLEEVEC™/irinotecan dosing regimens in a colon cancer xenotransplant model using human colon carcinoma cell line LS174T (ATCC). […] ARC308 was dosed via intraperitoneal delivery at 50 mg/kg once daily, and GLEEVEC™ was dosed at 50 mg/kg once daily, Monday through Friday. ARC308 prevents PDGF-BB from binding the PDGF receptor; this molecule has a 30K PEG attached. […] The results are statistically significant (two tailed students T-test).
An efficacy analysis of three treatment groups in this study is shown in Table 10 in terms of log cell kill and log cell kill net. Log cell kill is the log(base10) of the number of tumor cells before treatment divided by the number of cells after treatment. […] A fourth experiment (Experiment 4) was designed to further test ARC308/irinotecan dosing regimens in a colon cancer xenotransplant model using human colon carcinoma cell line LS174T (ATCC). […]

[6] = 100 nM aptamer, 5 nM PDGF BB, 24 well format
[7] = IV administration at 10 mg/kg in mice

T1 sequence (P01127 82-190 limits assumed): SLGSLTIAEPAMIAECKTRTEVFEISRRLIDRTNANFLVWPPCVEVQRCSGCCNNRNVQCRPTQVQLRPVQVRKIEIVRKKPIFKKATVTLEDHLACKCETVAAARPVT

## 5′-(SEQ ID NO.4)-HEG-(SEQ ID NO:5)-HEG-(SEQ ID NO:6)-3 (chain 1 CAGCGUACG; chain 2 CGTACCGATUCA; chain 3 TGAAGCUG; HEG spacers joining pieces; synthetic aptamer; modified_base (4)..(4) cytidine is 2′-fluoro; modified_base (5)..(5) gm; modified_base (6)..(6) uridine is 2′-fluoro; modified_base (8)..(8) cytidine is 2′-fluoro; modified_base (9)..(9) gm; modified_base (7)..(7) gm; modified_base (10)..(10) uridine is 2′-fluoro; modified_base (11)..(11) cytidine is 2′-fluoro; modified_base (12)..(12) adenosine is 2′-O-Methyl; modified_base (6)..(6) cytidine is 2′-fluoro; modified_base (7)..(7) uridine is 2′-fluoro; modified_base (8)..(8) gm) [ARC128, reference compound]
PDGF BB [1]; [6]
  migration of RPE cells: no activity
PDGF BB [1]; 96 well format
  migration of RPE cells: did not affect migration
PDGF BB [2]
  binding to PDGF: no longer binds PDGF
Lewis lung carcinoma
  effect on tumor vasculature (confocal images): did not affect the tumor vasculature

## 5′-[40 K PEG]-(SEQ ID NO:1)-HEG-(SEQ ID NO:2)-HEG-(SEQ ID NO:3)-3′-dT-3′ (chain 1 CAGGCUACG; chain 2 CGTAGAGCAUCA; chain 3 TGATCCUG; piece 1: 2'-fluoro at 6, 8, 2'-O-methyl at 9, 5' {PEG40k}, 3' [HEG], other sugars and backbone not given here; piece 2: 2'-O-methyl at 5, 7, 12, 2'-fluoro at 10, 11, 3' [HEG], other sugars and backbone not given here; piece 3: 2'-fluoro at 5, 6, 7, 2'-O-methyl at 8, 3' [invdT], other sugars and backbone not given here) [ARC127]
[3]; IP, 10 mg/kg in mice
  AUC: 143605.5 nM·h
  MRT: 11.231 h
  tmax: 8 h
[3]; [7]
  Cmax: 61 µM
  MRT: 5.08 h
  Vs: 0.0001 L/kg
[3]; IV, 10 mg/kg in mice
  AUC: 229686.8 nM·h
  MRT: 6.573 h
  tmax: 2 h
[3]; IV, IP or SC, 10 mg/kg in mice
  plasma concentration at 24 hrs post-dose: ~1
[3]; SC, 10 mg/kg in mice
  AUC: 55030.91 nM·h
  MRT: 16.632 h
  tmax: 8 h
[3]; intraperitoneal (IP), 10 mg/kg in mice
  systemic bioavailability, F: ~63%
[3]; subcutaneous (SC), 10 mg/kg in mice
  systemic bioavailability, F: ~24%
PDGF BB [4]
  active aptamer in plasma: present and active
PDGF BB [1]; [6]
  migration of RPE cells: inhibits the effects of 5 nM PDGF-BB
PDGF BB [1]; 96 well format
  migration of RPE cells: reduced migration levels to background
[5]; Experiment 2: ARC127 50 mg/kg IP once daily + irinotecan 150 mg/kg weekly vs irinotecan alone
  efficacy of irinotecan (rate of tumor growth): enhanced the efficacy of irinotecan treatment
[5]; in vivo experiments
  dose-limiting side effects: not evident
